Test results reported in US20040265341A1, “Prevention of uveitis” (Kings College London, priority 2003, published 2004).
Where two headings read alike, the source gives them in different places.

What was measured:
uveitis [1] = test: Prevention of experimental uveitis by oral administration in the rat uveitis model; assay type: in vivo; details: oral administration to experimental animals; conjugate vs peptide alone p<0.0001
uveitis [2] = details: cited from earlier work
PBMC [3] = assay type: cell-based, human; details: for concentration of IFN-γ: relapsed group
PBMC [4] = assay type: cell-based, human
[5] = before tolerising regime, 3 patients with relapsing uveitis

Sequence: QPHDLGKVGEVIVTKD [p336-351]
- development of uveitis (uveitis [1]): 65.8%
- development of uveitis (animals with uveitis / total) (uveitis [1]): 48/73
- induction of uveitis (uveitis [2]; Lewis rats, subcutaneously with an adjuvant, Uchio et al 1998): uveitis can be induced
- induction of uveitis or tolerance (uveitis [2]; oral or nasal administration, Hu et al 1998): induced uveitis instead of tolerance
- uveitogenicity when administered to rats (uveitis [2]; rats, Stanford et al 1994): most effective
- production of IFN-γ (PBMC [3]; patients in whom uveitis was prevented, before and 3 months after immunosuppressive drugs withdrawn): negligible
- TNF-α concentrations (PBMC [3]; protected patients): negligible
- concentration of IFN-γ (PBMC [3]; 1-2 months after tolerisation initiated, unstimulated 1665±1111 pg/ml): 4723 (±2639) pg/ml
- concentration of IFN-γ (PBMC [3]; before tolerisation, unstimulated 504±411 pg/ml): 758 ± 636 pg/mL
- TNF-α concentrations (PBMC [3]; relapsing patients, mostly 1-2 months after tolerisation): increased levels
- stimulation index (SI), individual patients (PBMC [4]; [5]): > 2
- stimulation index (SI), mean±sem (PBMC [4]; [5]): 4.1±0.8
- stimulation index (SI), mean±sem (PBMC [4]; before tolerising regime, 5 patients in whom uveitis was prevented): 1.25±0.1
- stimulation index (SI), mean (PBMC [4]; prevented group, 3 months after tolerising regime started, immunosuppressive drugs tailed off): 2.3±0.6
- stimulation index (SI), mean (PBMC [4]; relapsing group, 1-2 months after tolerising regime initiated, immunosuppressive doses decreased): 23.2 (±14.8)
